Reference: article PMC8232238 (Cells, 2021)

How the values were obtained:
HDAC8 = target: T1, HDAC8 (Homo sapiens, UniProt Q9BY41); assay: HDAC8 enzyme inhibition assay (single point and 10-dose IC50, Reaction Biology); format: biochemical
T1 construct: purchased Reaction Biology corporation (contract assay)
T1 sequence (Q9BY41 1-377): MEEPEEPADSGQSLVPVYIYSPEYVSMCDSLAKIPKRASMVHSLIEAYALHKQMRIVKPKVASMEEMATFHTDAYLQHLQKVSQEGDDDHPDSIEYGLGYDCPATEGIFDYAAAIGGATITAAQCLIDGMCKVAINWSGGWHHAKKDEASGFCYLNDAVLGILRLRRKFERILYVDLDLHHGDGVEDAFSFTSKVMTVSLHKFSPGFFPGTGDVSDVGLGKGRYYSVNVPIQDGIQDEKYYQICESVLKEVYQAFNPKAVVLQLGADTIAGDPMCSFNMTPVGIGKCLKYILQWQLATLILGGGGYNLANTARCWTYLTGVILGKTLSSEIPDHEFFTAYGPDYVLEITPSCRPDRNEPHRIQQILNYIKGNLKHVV
Experimental: (§1) Against HDAC6, inhibition was determined using 0.01 µM of the inhibitor.
(§2) All IC50 measurements we performed by Reaction Biology corporation. Compounds were tested in
(§3) dilution starting at 1 uM. […]
(§4) (RHK(Ac)K(Ac)AMC). IC50 values were calculated using the GraphPad Prism 4 program based on a
(§5) sigmoidal dose-response equation. […]

HDAC6 = target: T2, HDAC6 (Homo sapiens, UniProt Q9UBN7); assay: HDAC6 enzyme inhibition assay (single point and 10-dose IC50, Reaction Biology); format: biochemical
T2 construct: purchased Reaction Biology corporation (contract assay)
T2 sequence (Q9UBN7 1-1215): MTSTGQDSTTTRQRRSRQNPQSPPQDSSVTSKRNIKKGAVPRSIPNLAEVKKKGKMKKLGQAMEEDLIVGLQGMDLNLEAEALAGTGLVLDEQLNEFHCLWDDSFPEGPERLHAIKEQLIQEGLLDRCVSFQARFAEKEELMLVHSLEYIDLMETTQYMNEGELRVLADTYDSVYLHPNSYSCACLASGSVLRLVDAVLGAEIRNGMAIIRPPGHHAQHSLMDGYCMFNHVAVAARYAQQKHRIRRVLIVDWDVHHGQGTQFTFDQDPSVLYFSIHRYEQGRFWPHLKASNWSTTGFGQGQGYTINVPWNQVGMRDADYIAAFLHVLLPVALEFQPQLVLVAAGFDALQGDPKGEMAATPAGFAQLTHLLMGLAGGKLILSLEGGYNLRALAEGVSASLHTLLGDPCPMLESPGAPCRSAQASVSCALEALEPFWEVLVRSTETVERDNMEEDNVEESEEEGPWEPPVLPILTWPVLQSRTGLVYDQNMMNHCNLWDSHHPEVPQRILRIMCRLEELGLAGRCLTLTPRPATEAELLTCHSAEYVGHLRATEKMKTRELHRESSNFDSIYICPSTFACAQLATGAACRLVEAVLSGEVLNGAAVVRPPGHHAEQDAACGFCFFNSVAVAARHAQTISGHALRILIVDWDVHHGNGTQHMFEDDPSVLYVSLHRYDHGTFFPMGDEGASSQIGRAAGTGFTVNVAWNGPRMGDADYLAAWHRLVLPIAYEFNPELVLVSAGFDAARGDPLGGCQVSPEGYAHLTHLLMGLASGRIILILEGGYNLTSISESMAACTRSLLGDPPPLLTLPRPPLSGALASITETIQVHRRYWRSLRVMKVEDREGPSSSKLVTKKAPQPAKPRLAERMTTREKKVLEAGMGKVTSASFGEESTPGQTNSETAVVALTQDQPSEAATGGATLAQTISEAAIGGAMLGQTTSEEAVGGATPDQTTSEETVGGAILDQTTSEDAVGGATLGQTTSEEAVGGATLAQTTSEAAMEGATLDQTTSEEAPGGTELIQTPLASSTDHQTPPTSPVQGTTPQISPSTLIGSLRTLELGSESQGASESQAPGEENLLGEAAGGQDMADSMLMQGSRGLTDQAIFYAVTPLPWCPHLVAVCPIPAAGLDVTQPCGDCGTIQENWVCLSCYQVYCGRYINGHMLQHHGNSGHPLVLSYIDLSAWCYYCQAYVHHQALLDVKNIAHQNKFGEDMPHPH
Experimental: as §1, §2, §3, §4, §5

[1] = UV/Vis absorption and fluorescence (photophysical properties) in DMSO; format: physicochemical
Experimental: S1.6 UV/Vis and Fluorescence Data
UV/Vis analysis was performed on a Cary Eclipse 300 UV/Vis spectrophotometer and fluorescence measurements performed on a Cary Eclipse Fluorescence spectrophotometer. All analysis was performed in 10 mm quartz cuvettes using AR grade DMSO. Relative quantum yields were obtained by comparison to quinine sulfate (фf = 0.58 in 0.1 M H2SO4) with absorbance of samples adjusted so that the absorbance at 340 nm was similar to the reference.
Emission spectra were obtained by excitation at 340 nm. Quantum yield was obtained by use of the following equation and are reported as the average of two samples with error <5%; […]
Where фref is the literature quantum yield of the reference, η is the refractive index of the solvent (H2O = 1.333, DMSO = 1.479) and Is is the integrated fluorescence intensity of the sample with Iref being the same of the reference.
Table S1 – Photophysical properties of selected compounds in DMSO […]
†Average of two samples, ±1%

[2] = average of two independent measurements

## O=C(CCCCCN1C(=O)c2cccc3cc(NC(=O)c4ccccc4)cc(c23)C1=O)NO [KNH019]
HDAC8; [2]
  IC50: 2950 ± 460 nM
HDAC8; selectivity for HDAC6 over HDAC8
  Selectivity factor (SF) HDAC8 against HDAC6: 2950
HDAC8; single point, inhibitor 1.0 μM, average of two measurements, ±2%
  HDAC8 average enzyme isoform activity (percentage of full enzyme activity): 69.3%
HDAC6; [2]
  IC50: 1 ± 0.005 nM
HDAC6; single point, inhibitor 0.01 μM, average of two measurements, ±2%
  HDAC6 average enzyme isoform activity (percentage of full enzyme activity): 20.4%
[1]
  λabs (absorption maximum): 343 nm
  λabs (secondary absorption maximum): 374 nm
[1]; excitation at 340 nm
  λem: 437 nm
[1]; relative to quinine sulfate, average of two samples
  Φf (fluorescence quantum yield): 0.05
